In the CheMixHub viscosity set:
± gives the uncertainty stated by the source.

Assay: xn = mol fraction of the nth substance listed

Question: What does the source list for CCCCCCO + CCCCCC?
Answer: viscosity (308.15 K, 100 kPa, x1 = 0.2999): 0.4855 ± 0.0062 mPa·s; viscosity (308.15 K, 100 kPa, x1 = 0.3999): 0.6019 ± 0.0072 mPa·s; viscosity (308.15 K, 100 kPa, x1 = 0.5): 0.8102 ± 0.0092 mPa·s; viscosity (308.15 K, 100 kPa, x1 = 0.6002): 1.08 ± 0.012 mPa·s; viscosity (308.15 K, 100 kPa, x1 = 0.7): 1.406 ± 0.015 mPa·s; viscosity (308.15 K, 100 kPa, x1 = 0.8): 1.847 ± 0.021 mPa·s; viscosity (308.15 K, 100 kPa, x1 = 0.9096): 2.566 ± 0.029 mPa·s; viscosity (313 K, 101.33 kPa, x1 = 0.0995): 0.3081 ± 0.012 mPa·s; viscosity (313 K, 101.33 kPa, x1 = 0.1996): 0.3673 ± 0.013 mPa·s; viscosity (313 K, 101.33 kPa, x1 = 0.2995): 0.4576 ± 0.014 mPa·s; viscosity (313 K, 101.33 kPa, x1 = 0.4012): 0.5618 ± 0.015 mPa·s; viscosity (313 K, 101.33 kPa, x1 = 0.5004): 0.725 ± 0.017 mPa·s; viscosity (313 K, 101.33 kPa, x1 = 0.6): 0.9609 ± 0.021 mPa·s; viscosity (313 K, 101.33 kPa, x1 = 0.6983): 1.287 ± 0.027 mPa·s; viscosity (313 K, 101.33 kPa, x1 = 0.7965): 1.673 ± 0.036 mPa·s; viscosity (313 K, 101.33 kPa, x1 = 0.8984): 2.185 ± 0.05 mPa·s; viscosity (313.15 K, 100 kPa, x1 = 0.0277): 0.2857 ± 0.005 mPa·s; viscosity (313.15 K, 100 kPa, x1 = 0.05): 0.2883 ± 0.005 mPa·s; viscosity (313.15 K, 100 kPa, x1 = 0.1): 0.3109 ± 0.0051 mPa·s; viscosity (313.15 K, 100 kPa, x1 = 0.1976): 0.3694 ± 0.0055 mPa·s; viscosity (313.15 K, 100 kPa, x1 = 0.2999): 0.4503 ± 0.006 mPa·s; viscosity (313.15 K, 100 kPa, x1 = 0.3999): 0.555 ± 0.0069 mPa·s; viscosity (313.15 K, 100 kPa, x1 = 0.5): 0.7462 ± 0.0086 mPa·s; viscosity (313.15 K, 100 kPa, x1 = 0.6002): 0.9846 ± 0.011 mPa·s; viscosity (313.15 K, 100 kPa, x1 = 0.7): 1.272 ± 0.014 mPa·s; viscosity (313.15 K, 100 kPa, x1 = 0.8): 1.644 ± 0.018 mPa·s; viscosity (313.15 K, 100 kPa, x1 = 0.9096): 2.251 ± 0.026 mPa·s; viscosity (313.15 K, 101.33 kPa, x2 = 0.0954): 2.219 ± 0.02 mPa·s; viscosity (313.15 K, 101.33 kPa, x2 = 0.1918): 1.71 ± 0.016 mPa·s; viscosity (313.15 K, 101.33 kPa, x2 = 0.2892): 1.295 ± 0.012 mPa·s; viscosity (313.15 K, 101.33 kPa, x2 = 0.3876): 0.9896 ± 0.0095 mPa·s; viscosity (313.15 K, 101.33 kPa, x2 = 0.487): 0.7581 ± 0.0075 mPa·s; viscosity (313.15 K, 101.33 kPa, x2 = 0.5874): 0.5894 ± 0.006 mPa·s; viscosity (313.15 K, 101.33 kPa, x2 = 0.689): 0.4749 ± 0.005 mPa·s; viscosity (313.15 K, 101.33 kPa, x2 = 0.7915): 0.3791 ± 0.0041 mPa·s; viscosity (313.15 K, 101.33 kPa, x2 = 0.8952): 0.3285 ± 0.0037 mPa·s; viscosity (318.15 K, 100 kPa, x1 = 0.0277): 0.2746 ± 0.0049 mPa·s; viscosity (318.15 K, 100 kPa, x1 = 0.05): 0.2766 ± 0.005 mPa·s; viscosity (318.15 K, 100 kPa, x1 = 0.1): 0.297 ± 0.0051 mPa·s; viscosity (318.15 K, 100 kPa, x1 = 0.1976): 0.3511 ± 0.0054 mPa·s; viscosity (318.15 K, 100 kPa, x1 = 0.2999): 0.4266 ± 0.0059 mPa·s; viscosity (318.15 K, 100 kPa, x1 = 0.3999): 0.5178 ± 0.0066 mPa·s; viscosity (318.15 K, 100 kPa, x1 = 0.5): 0.6859 ± 0.0081 mPa·s; viscosity (318.15 K, 100 kPa, x1 = 0.6002): 0.8985 ± 0.01 mPa·s; viscosity (318.15 K, 100 kPa, x1 = 0.7): 1.155 ± 0.013 mPa·s; viscosity (318.15 K, 100 kPa, x1 = 0.8): 1.48 ± 0.017 mPa·s; viscosity (318.15 K, 100 kPa, x1 = 0.9096): 1.987 ± 0.023 mPa·s; viscosity (323 K, 101.33 kPa, x1 = 0.0995): 0.2787 ± 0.012 mPa·s; viscosity (323 K, 101.33 kPa, x1 = 0.1996): 0.3303 ± 0.013 mPa·s; viscosity (323 K, 101.33 kPa, x1 = 0.2995): 0.4051 ± 0.013 mPa·s; viscosity (323 K, 101.33 kPa, x1 = 0.4012): 0.5023 ± 0.014 mPa·s; viscosity (323 K, 101.33 kPa, x1 = 0.5004): 0.6113 ± 0.015 mPa·s; viscosity (323 K, 101.33 kPa, x1 = 0.6): 0.7992 ± 0.018 mPa·s; viscosity (323 K, 101.33 kPa, x1 = 0.6983): 1.049 ± 0.022 mPa·s; viscosity (323 K, 101.33 kPa, x1 = 0.7965): 1.34 ± 0.027 mPa·s; viscosity (323 K, 101.33 kPa, x1 = 0.8984): 1.721 ± 0.036 mPa·s; viscosity (323.15 K, 100 kPa, x2 = 0.25): 1.211 ± 0.069 mPa·s; viscosity (323.15 K, 101.33 kPa, x2 = 0.0954): 1.682 ± 0.015 mPa·s; viscosity (323.15 K, 101.33 kPa, x2 = 0.1918): 1.32 ± 0.012 mPa·s; viscosity (323.15 K, 101.33 kPa, x2 = 0.2892): 1.02 ± 0.01 mPa·s; viscosity (323.15 K, 101.33 kPa, x2 = 0.3876): 0.8098 ± 0.0079 mPa·s; viscosity (323.15 K, 101.33 kPa, x2 = 0.487): 0.6263 ± 0.0063 mPa·s; viscosity (323.15 K, 101.33 kPa, x2 = 0.5874): 0.5103 ± 0.0053 mPa·s; viscosity (323.15 K, 101.33 kPa, x2 = 0.689): 0.404 ± 0.0043 mPa·s; viscosity (323.15 K, 101.33 kPa, x2 = 0.7915): 0.3396 ± 0.0038 mPa·s; viscosity (323.15 K, 101.33 kPa, x2 = 0.8952): 0.2844 ± 0.0033 mPa·s
